This is an account of results in patent US9603804B2, “Solid pharmaceutical composition” (KYORIN PHARMACEUTICAL CO., LTD., priority 2013, dated 2017).

Data set [1] in a line: Solubility in water at 20° C. of acidic substances. In kind it is physicochemical. The following applies: MW={C/(100+C)}×100, C = mass (g) of solute dissolved in 100 g of water. On the procedure:
The “solubility in water” herein is a value obtained by calculation using the following equation (A) on the basis of the mass (g) of a solute that is dissolved in 100 g of water. MW={C/(100+C)}×100 (A) In the equation (A), MW represents the solubility (%) in water and C represents the mass (g) of a solute that is dissolved in 100 g of water.

Data set [2] in a line: pH measurement of acidic/basic substances (2.5% liquid, pH meter). It is filed as physicochemical. The following applies: 50 mg substance dissolved or suspended in 1,950 μL of water (concentration: 2.5%).

As to `O=C(O)CC(O)C(=O)O` (racemic) [DL-MALIC ACID, DL-malic acid], in data set [1], the “SOLUBILITY IN WATER (20° C.)” value came to 36.0%. The compound further displayed a pH in data set [2] of 2.1.

In the case of `O=C(O)CC(O)(CC(=O)O)C(=O)O` [ANHYDROUS CITRIC ACID, citric acid anhydride], the pH in data set [2] stood at 2.1.

The compound `O=C([O-])CC(O)(CC(=O)[O-])C(=O)O.[Na+].[Na+]` [DIBASIC SODIUM CITRATE, dibasic sodium citrate] gave a pH in data set [2] of 5.1.

As for `O=C(O)/C=C/C(=O)O` [FUMARIC ACID, fumaric acid], the “SOLUBILITY IN WATER (20° C.)” value in data set [1] is listed as 0.63%. Besides, the pH in data set [2] is 2.2.

For `O=C(O)C(O)C(O)C(=O)O` [L-(+)TARTARIC ACID, L-(+)tartaric acid], the pH in data set [2] is reported as 1.9.

As to `N[C@@H](CC(=O)O)C(=O)O` [L-ASPARTIC ACID, L-aspartic acid], the pH in data set [2] worked out at 2.8.

Regarding `Cl.N[C@@H](CCC(=O)O)C(=O)O` [L-GLUTAMIC ACID HYDROCHLORIDE, L-glutamic acid hydrochloride], the pH in data set [2] is reported as 1.5.

In data set [2], `N[C@@H](CCC(=O)O)C(=O)O` [L-GLUTAMIC ACID, L-glutamic acid] displayed a pH of 3.0.

`O=C([O-])CC(O)(CC(=O)O)C(=O)O.[Na+]` [MONOBASIC SODIUM CITRATE, monobasic sodium citrate]: in data set [2], the pH is recorded as 3.7.

On to `O=C([O-])CC(O)(CC(=O)[O-])C(=O)[O-].[Na+].[Na+].[Na+]` [SODIUM CITRATE, sodium citrate], for which the pH in data set [2] was 8.2.
